Assay results: paper PMC3961306, “Comparison of the Cancer Gene Targeting and Biochemical Selectivities of All Targeted Kinase Inhibitors Approved for Clinical Use” (PLoS ONE, 2014)

Assays:
Assay in all cases: Kinase profiling in a biochemical assay panel (mobility shift assays and ELISA), %-inhibition at 1 μM; selectivity entropy
[1] = biological target: panel of more than 300 wild-type and mutant kinases (313 kinase panel) (Homo sapiens, UniProt P78368); details: kinase CK1γ2; 1 μM compound
[2] = biological target: panel of more than 300 wild-type and mutant kinases (313 kinase panel) (Homo sapiens, UniProt P06213); details: kinase INSR; compound at 1 μM
panel of more than 300 wild-type and mutant kinases (313 kinase panel) (Homo sapiens, UniProt P06213), sequence (P06213 28-1382, stated change not applied): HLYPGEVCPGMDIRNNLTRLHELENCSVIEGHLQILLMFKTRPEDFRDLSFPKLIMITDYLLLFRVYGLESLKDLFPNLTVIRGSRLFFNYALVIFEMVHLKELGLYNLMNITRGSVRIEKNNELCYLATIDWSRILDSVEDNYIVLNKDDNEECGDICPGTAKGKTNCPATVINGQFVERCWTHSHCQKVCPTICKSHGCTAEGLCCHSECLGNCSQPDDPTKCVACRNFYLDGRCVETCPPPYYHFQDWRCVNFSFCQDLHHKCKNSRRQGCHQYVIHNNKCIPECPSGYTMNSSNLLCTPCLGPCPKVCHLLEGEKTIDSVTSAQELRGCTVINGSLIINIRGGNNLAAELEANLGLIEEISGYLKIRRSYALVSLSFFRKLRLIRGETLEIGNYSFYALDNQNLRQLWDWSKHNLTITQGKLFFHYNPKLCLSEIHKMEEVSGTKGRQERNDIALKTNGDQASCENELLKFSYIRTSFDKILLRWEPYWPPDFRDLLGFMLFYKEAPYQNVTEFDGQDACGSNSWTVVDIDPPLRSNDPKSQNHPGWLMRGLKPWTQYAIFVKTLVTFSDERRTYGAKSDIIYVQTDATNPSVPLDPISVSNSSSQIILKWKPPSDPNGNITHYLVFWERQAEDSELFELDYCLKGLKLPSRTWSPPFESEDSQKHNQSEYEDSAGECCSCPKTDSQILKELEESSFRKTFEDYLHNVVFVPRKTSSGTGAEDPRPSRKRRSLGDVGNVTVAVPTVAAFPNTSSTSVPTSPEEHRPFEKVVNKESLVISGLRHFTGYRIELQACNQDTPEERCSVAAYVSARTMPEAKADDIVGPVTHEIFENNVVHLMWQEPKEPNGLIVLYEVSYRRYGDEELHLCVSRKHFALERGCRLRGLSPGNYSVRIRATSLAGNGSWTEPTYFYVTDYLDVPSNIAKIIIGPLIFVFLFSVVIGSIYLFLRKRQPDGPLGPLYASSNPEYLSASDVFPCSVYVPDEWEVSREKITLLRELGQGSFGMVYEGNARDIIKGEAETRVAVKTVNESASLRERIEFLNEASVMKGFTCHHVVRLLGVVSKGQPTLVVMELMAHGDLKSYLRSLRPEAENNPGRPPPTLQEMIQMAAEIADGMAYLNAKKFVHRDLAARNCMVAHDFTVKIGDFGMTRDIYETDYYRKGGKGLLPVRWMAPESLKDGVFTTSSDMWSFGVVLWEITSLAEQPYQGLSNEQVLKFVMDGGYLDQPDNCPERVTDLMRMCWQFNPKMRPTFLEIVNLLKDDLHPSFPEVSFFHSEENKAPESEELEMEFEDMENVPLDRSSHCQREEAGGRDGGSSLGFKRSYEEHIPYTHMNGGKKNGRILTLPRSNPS

[3] = biological target: T1, panel of more than 300 wild-type and mutant kinases (313 kinase panel) (Homo sapiens, UniProt Q9UHD2); details: kinase TBK1; 1 μM
T1 sequence (Q9UHD2 1-729): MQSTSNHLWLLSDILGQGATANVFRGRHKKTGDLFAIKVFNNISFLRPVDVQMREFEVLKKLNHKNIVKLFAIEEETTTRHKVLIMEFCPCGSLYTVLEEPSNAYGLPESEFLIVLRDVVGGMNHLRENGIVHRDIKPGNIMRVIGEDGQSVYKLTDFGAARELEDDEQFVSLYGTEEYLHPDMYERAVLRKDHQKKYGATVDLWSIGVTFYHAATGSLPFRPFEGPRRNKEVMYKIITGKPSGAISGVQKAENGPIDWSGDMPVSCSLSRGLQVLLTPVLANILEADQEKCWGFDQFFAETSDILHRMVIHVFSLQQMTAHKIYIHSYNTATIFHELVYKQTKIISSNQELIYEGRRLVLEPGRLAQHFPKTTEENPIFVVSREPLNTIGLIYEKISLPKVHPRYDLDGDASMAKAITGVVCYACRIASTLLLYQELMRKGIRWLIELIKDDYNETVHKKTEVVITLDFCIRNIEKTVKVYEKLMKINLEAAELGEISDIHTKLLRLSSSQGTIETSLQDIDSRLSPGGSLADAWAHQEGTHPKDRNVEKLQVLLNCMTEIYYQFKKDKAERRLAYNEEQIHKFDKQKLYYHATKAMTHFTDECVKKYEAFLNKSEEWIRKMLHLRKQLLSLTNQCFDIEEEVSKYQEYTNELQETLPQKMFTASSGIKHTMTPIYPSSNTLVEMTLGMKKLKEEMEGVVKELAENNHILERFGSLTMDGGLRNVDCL

[4] = biological target: panel of more than 300 wild-type and mutant kinases (313 kinase panel) (Homo sapiens, UniProt Q13554)
panel of more than 300 wild-type and mutant kinases (313 kinase panel) (Homo sapiens, UniProt Q13554), sequence (Q13554 whole entry, change not shown): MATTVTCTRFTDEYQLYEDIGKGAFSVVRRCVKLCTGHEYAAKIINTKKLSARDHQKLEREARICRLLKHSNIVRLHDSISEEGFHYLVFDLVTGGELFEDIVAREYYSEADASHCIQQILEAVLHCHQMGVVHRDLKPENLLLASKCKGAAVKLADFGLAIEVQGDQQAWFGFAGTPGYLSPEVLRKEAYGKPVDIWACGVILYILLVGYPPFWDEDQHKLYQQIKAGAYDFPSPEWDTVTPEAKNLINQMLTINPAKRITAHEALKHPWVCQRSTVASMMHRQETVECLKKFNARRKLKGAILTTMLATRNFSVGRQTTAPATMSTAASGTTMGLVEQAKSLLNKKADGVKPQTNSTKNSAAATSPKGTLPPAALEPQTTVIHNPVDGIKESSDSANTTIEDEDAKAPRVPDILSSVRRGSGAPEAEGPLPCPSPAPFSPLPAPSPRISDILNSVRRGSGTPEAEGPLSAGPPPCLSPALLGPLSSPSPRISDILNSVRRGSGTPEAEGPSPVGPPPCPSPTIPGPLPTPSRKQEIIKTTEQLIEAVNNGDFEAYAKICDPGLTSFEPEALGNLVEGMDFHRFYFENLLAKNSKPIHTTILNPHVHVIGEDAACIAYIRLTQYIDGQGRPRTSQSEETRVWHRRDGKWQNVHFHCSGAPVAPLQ

[5] = biological target: T2, panel of more than 300 wild-type and mutant kinases (313 kinase panel) (Homo sapiens, UniProt O14733)
T2 sequence (O14733 1-419): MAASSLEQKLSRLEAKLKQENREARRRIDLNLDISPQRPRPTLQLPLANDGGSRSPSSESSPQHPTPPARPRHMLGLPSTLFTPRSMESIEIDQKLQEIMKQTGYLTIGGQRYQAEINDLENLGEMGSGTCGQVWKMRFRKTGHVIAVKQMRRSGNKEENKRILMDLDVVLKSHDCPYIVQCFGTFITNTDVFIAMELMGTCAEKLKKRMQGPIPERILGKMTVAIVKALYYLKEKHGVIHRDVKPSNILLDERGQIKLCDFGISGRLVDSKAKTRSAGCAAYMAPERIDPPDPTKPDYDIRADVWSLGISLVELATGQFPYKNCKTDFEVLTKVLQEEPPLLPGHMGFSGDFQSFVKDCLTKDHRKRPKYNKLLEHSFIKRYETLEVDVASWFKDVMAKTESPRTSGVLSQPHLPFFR

[6] = biological target: panel of more than 300 wild-type and mutant kinases (313 kinase panel) (Homo sapiens, UniProt P36507); details: kinase MAP2K2; compound at 1 μM
[7] = biological target: panel of more than 300 wild-type and mutant kinases (313 kinase panel) (Homo sapiens, UniProt Q9HBH9); details: kinase MNK2; 1 μM
[8] = biological target: T3, panel of more than 300 wild-type and mutant kinases (313 kinase panel) (Homo sapiens, UniProt P45985); details: kinase MAP2K4; compound at 1 μM
T3 sequence (P45985 1-399): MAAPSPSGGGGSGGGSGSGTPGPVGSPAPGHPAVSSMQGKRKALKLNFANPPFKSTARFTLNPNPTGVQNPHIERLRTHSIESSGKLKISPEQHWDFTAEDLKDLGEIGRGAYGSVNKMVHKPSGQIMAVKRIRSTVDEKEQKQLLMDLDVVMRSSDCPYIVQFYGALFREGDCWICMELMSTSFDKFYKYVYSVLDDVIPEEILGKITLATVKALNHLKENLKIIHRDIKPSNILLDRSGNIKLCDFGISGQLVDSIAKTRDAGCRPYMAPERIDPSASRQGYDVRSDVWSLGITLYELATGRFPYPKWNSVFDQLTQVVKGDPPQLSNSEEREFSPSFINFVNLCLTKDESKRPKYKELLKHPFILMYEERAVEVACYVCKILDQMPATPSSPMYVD

[9] = biological target: panel of more than 300 wild-type and mutant kinases (313 kinase panel) (Homo sapiens, UniProt P22455, V550E); details: kinase FGFR4(V550E); compound at 1 μM
panel of more than 300 wild-type and mutant kinases (313 kinase panel) (Homo sapiens, UniProt P22455, V550E), sequence (P22455 22-802 V550E): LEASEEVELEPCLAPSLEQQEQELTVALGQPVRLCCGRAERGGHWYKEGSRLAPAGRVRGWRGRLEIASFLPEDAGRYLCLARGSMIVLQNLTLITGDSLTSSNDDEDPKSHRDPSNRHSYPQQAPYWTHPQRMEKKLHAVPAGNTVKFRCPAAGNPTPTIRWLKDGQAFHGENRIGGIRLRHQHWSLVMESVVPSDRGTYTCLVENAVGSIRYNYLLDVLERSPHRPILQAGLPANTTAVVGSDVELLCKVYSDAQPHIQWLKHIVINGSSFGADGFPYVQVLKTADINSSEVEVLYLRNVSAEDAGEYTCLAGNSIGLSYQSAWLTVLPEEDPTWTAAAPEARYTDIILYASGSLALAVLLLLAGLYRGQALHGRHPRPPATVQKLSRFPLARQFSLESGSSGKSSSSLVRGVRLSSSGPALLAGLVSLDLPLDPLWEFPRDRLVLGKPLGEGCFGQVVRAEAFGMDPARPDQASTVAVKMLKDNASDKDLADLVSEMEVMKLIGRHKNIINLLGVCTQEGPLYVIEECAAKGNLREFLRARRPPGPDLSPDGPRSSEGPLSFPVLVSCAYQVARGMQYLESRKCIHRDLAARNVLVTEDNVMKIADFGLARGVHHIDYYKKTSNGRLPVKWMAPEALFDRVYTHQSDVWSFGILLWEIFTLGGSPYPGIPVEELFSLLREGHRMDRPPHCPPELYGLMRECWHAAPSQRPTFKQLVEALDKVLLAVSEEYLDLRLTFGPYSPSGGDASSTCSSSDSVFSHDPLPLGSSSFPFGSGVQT

[10] = biological target: panel of more than 300 wild-type and mutant kinases (313 kinase panel) (Homo sapiens, UniProt P06239); details: kinase LCK; compound at 1 μM
panel of more than 300 wild-type and mutant kinases (313 kinase panel) (Homo sapiens, UniProt P06239), sequence (P06239 whole entry, change not shown): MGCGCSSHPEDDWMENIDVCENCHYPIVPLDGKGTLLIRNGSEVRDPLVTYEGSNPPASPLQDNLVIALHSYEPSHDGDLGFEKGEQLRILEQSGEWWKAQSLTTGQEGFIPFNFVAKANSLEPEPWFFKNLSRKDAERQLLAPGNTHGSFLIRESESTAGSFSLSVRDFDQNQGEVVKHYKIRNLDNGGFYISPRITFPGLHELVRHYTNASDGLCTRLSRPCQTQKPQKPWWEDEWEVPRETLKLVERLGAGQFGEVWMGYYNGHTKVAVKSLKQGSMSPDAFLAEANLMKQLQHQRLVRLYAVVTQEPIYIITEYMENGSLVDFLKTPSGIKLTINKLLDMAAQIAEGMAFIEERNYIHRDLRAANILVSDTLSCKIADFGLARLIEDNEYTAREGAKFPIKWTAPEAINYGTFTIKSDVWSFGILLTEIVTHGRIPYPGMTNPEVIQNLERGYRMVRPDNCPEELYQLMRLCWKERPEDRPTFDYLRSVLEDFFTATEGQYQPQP

[11] = biological target: panel of more than 300 wild-type and mutant kinases (313 kinase panel) (Homo sapiens, UniProt Q16644); details: kinase MAPKAPK3; compound at 1 μM
panel of more than 300 wild-type and mutant kinases (313 kinase panel) (Homo sapiens, UniProt Q16644), sequence (Q16644 whole entry, change not shown): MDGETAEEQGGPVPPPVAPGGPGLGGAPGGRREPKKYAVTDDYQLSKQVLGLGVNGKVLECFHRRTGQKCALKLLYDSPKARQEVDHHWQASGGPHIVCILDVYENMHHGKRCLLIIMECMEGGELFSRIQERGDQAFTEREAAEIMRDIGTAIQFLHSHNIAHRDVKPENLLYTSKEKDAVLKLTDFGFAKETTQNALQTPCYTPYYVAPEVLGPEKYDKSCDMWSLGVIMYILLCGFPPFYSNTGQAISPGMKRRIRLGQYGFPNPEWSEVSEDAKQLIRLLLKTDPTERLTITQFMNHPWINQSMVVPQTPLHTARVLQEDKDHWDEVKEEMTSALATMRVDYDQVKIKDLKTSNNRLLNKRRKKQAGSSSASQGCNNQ

[12] = kinase MAP2K7, compound at 1 μM

Row | Structure (SMILES) | %-inhibition, CK1γ2 [1] [%] | %-inhibition of INSR [2] [%] | %-inhibition of TBK1 [3] [%] | %-inhibition, CaMK2β ([4]; kinase CaMK2β, 1 μM compound) [%] | %-inhibition of MAP2K7 [5, 12] [%] | %-inhibition of MAP2K2 [6] [%] | %-inhibition of MNK2 [7] [%] | %-inhibition of MAP2K4 [8] [%] | %-inhibition of FGFR4(V550E) [9] [%] | %-inhibition of LCK [10] [%] | %-inhibition of MAPKAPK3 [11] [%] | %-inhibition, CaMK2β ([4]; 1 µM) [%] | %-inhibition of MAP2K7 ([5]; 1 µM) [%]
1 | CO[C@H]1C[C@@H]2CC[C@@H](C)[C@@](O)(O2)C(=O)C(=O)N2CCCC[C@H]2C(=O)O[C@H]([C@H](C)C[C@@H]2CC[C@@H](OCCO)[C@H](OC)C2)CC(=O)[C@H](C)/C=C(\C)[C@@H](O)[C@@H](OC)C(=O)[C@H](C)C[C@H](C)/C=C/C=C/C=C/1C [everolimus] | -2.3 | -3.77 | -5 | -10 | 11 | 11 | 1.88 | 1.55 | -4.41 | -2.67 | -15 |  | 
2 | CNC(=O)c1cc(Oc2ccc(NC(=O)Nc3ccc(Cl)c(C(F)(F)F)c3)c(F)c2)ccn1 [regorafenib] | -3 | -2.79 | -2.13 | -9 | -2.53 | 16 | 73 | 0.434 | -0.119 | 85 | -15 |  | 
3 | CO[C@H]1C[C@@H]2CC[C@@H](C)[C@@](O)(O2)C(=O)C(=O)N2CCCC[C@H]2C(=O)O[C@H]([C@H](C)C[C@@H]2CC[C@@H](OC(=O)C(C)(CO)CO)[C@H](OC)C2)CC(=O)[C@H](C)/C=C(\C)[C@@H](O)[C@@H](OC)C(=O)[C@H](C)C[C@H](C)/C=C/C=C/C=C/1C [temsirolimus] | -3.32 | -4 | -2.23 | -9 | 10 | 13 | -14 | 8.51 | -0.119 | -2.22 | -11 |  | 
4 | COc1cc2nccc(Oc3ccc(NC(=O)C4(C(=O)Nc5ccc(F)cc5)CC4)cc3)c2cc1OC [cabozantinib] | 0.731 | 35 | -0.506 | -4 | 10 | 61 | 97 | -0.379 | -4 | 98 | -9 |  | 
5 | N#CC[C@H](C1CCCC1)n1cc(-c2ncnc3[nH]ccc23)cn1 [ruxolitinib] | -0.393 | 0.837 | 21 |  |  | 12 | 54 | 10 | 5 | 21 | -13 | 22 | 4
